# Reference: patent US20150272959A1, “SMALL MOLECULES AS ANTI-HIV AGENTS THAT DISRUPT VIF SELF-ASSOCIATION AND METHODS OF USE THEREOF” (OYAGEN, INC., priority 2012, published 2015)
# Where “and” joins values, the source holds several entries; their conditions need not be identical. Identical values can stand only once. Like-named read-outs stand apart in the source and are kept apart here.
# Experiments:
# [1] = tested on: Vif-dependent A3G degradation; assay: Vif-dependent A3G-mCherry degradation assay in 293T cells; type: cell-based; settings: single dose 8 μM
# Experimental: A3G-mCherry is stably expressed in 293T cells under puromycin selection. 50 ng of Vif was transiently transfected into the cells in 384-well format with Turbofect. 4 hours after transfection the chemistries were added to cells in a range from (0.5-16 μM). 24 hours after chemistries were added the mCherry signal was read on a Biotek Synergy 4 plate reader. The signal from cells plated but not transfected with Vif was averaged and set at 100% (left image), and cells transfected with Vif and treated with DMSO only were averaged and set at 0% (right image). A chemistry that inhibits Vif's ability to chaperone A3G to the proteasomal degradation pathway would result in an increased mCherry signal compared to the DMSO only control, and any signal that is much higher than the no Vif positive control is likely to be due to autofluorescence from the chemistry itself.
# To simplify the numbering the compounds were numbered from 1 to 32 in the same order as plated in the original vials and listed on the original Dry Powder list sent with the vials by the Broad. […] The first compound is 02-16, which is the lead from the previous OyaGen screen mentioned above with strong A3G dependency in live virus tests and the last data set are the DMSO controls that were averaged out to set the 0% mark. […]
# pseudotyped HIV = type: cell-based; settings: for efficacy: all concentrations tested below 15 μM; for toxicity: concentrations higher than 15 μM
# From the text: This figure is a visual representation of how the single cycle infectivity experiments were done. They are in 6 well format in order to obtain enough virus to do viral particle purifications for western blot detection of A3G in the viral particle. […] The wild type HIV proviral vector codes for all HIV genes except nef (replaced with EGFP) and env. […] Alternatively, in the absence of A3G, both wild type and ΔVif viruses should have high infectivity.
# […]. Viral load was then normalized with a p24 ELISA (Perkin Elmer).
# The infections utilized TZM-bl reporter cells that contain stably integrated luciferase that is driven by the HIV-LTR promoter, therefore luciferase is expressed upon successful HIV infection. Triplicate infections in 96-well plates at 10,000 cells/well with 500 pg p24/well proceeded for 48 hours before the addition of SteadyGlo™ Reagent (Promega) to each well for 30 minutes. Luminescence was measured as a quantitative metric for changes in infectivity with each compound as compared to controls, in which relative luminescence units (RLU) with no chemistry are set to 100%.
# This figure is intended to highlight where in the experimental method negative results occurred. Although all compounds to this point in screening have shown little to no toxicity in the Primary and Secondary Screens, when cells are challenged with viral production they are more sensitive to toxicity from chemistries since cells have to combat viral proteins overtaking of cellular pathways and any adverse effects from the chemistries. […] If the producer cells are healthy and make enough virus for infectivity testing there are three possible outcomes and two are undesirable for any chemistry to go forward into probe development. […] This is best represented as a differential between infectivity in the presence of Vif and A3G vs the absence of Vif and A3G.
# Each compound was tested at multiple concentrations in separate infectivity assays. The concentrations are listed on the top, followed by the infectivity in relation to the no chemistry control for both + and −Vif and A3G conditions, and the large number on the bottom is the differential between infectivity of +Vif virus and with A3G cotransfected compared to −Vif virus without A3G (purple numbers are for good values and blue numbers are for weak values). […] For compound 9 although the drop in infectivity compared to the no chemistries controls are not as low as for compounds 21 and 24 for +Vif and A3G infectivities, there is an increase in the −Vif and A3G infectivities compared to control making the differential between the +/−Vif and A3G virus lower than 24 and 21 at 0.33 and 0.44 in Dry Powder Infectivities B&C. Note that normalization for the viral load with p24 only accounts for total viral particles in the media, but is unable to discriminate between mature and immature virions. If a chemistry has an effect on % of mature virions compared to the no chemistry control there could be an impact on viral infectivity values compared to control. Therefore, although it is crucial to see lower infectivity than the no chemistry control the more critical number is the differential between +/−Vif and A3G, because both those virial preps contain the chemistry and would have similar effects on the viral populations going into the infectivity assay. On the other hand, compound 21 has +Vif and A3G infectivity at 56% at 15 μM but the −Vif and A3G infectivity is only at 63% making the differential only 0.88.
# [2] = tested on: A3G in the viral particle; assay: A3G in the viral particle, western blot A3G:p24 ratio (FIG. 18); type: cell-based, HIV; settings: for increase of A3G:p24 ratio over the negative control: parallel to Dry Powder Infectivities B & C, 30 ng p24
# Experimental: Parallel to Dry Powder Infectivities B & C, viral particles (30 ng p24) were pelleted through a 20% sucrose cushion, resolved by SDS-PAGE and western blotted for VS-tagged A3G and p24. The yield of A3G relative to p24 (as a virus loading control) was quantified by scanning densitometry to validate the antiviral mechanism. The first two lanes are the −Vif virus with A3G (positive control) and the +Vif virus with A3G (negative control). The A3G:p24 Ratio for the negative control was set to 1 (Ratios listed under the westerns). Chemistry 24 had 5 and 15 fold increases over the negative control. On the other hand, chemistry 9 had increases of 55 and 76-fold over the control, both higher than the positive control at 48-fold above the negative control. However, the positive control has lower overall infectivity and differentials than 9.
# A3.01 (+A3G) cells = type: cell-based
# From the text: (§1) All the screens to this point utilized 293T cells and the Brd. […] The rationale is to set a CC50 standard in T cells to measure against for medicinal chemistry derived compounds created from these scaffolds going forward. CEMSS (−A3G) and A3.01 (+A3G) were selected, because they are both CEM derived T cell lines that can be used to compare in live virus spreading infections for A3G-dependency.
# CEMSS (-A3G) cells = type: cell-based
# From the text: as §1
# [3] = 15 μM, relative to no chemistry control
SMILES,DMSO stock test [1],+/-Vif and A3G differential (in words) (pseudotyped HIV),-Vif and A3G infectivities compared to control (pseudotyped HIV),antiviral activity (pseudotyped HIV),differential between +/-Vif and A3G virus infectivity (pseudotyped HIV; Dry Powder Infectivity B),differential between +/-Vif and A3G virus infectivity (pseudotyped HIV; Dry Powder Infectivity C),efficacy (pseudotyped HIV),toxicity (pseudotyped HIV),A3G in the viral particles (in words) [2],increase of A3G:p24 ratio over the negative control [2],CC50 (A3.01 (+A3G) cells) [µM],CC50 (CEMSS (-A3G) cells) [µM],differential between +/-Vif and A3G infectivity (pseudotyped HIV; 15 μM),+Vif and A3G infectivity (pseudotyped HIV; [3]) [%],-Vif and A3G infectivity (pseudotyped HIV; [3]) [%],toxic effects (pseudotyped HIV; above 30 μM),"differential between +/-Vif and A3G infectivity (pseudotyped HIV; above 30 μM, Dry Powder infectivity A)","differential between +/-Vif and A3G infectivity (pseudotyped HIV; above 30 μM, Dry Powder infectivity C)"
Cc1nnc2ccc(-c3cccc(NS(=O)(=O)c4cc(F)ccc4F)c3)nn12 [Compound 9],low,differential between +/−Vif and A3G infectivities,increase,antiviral activity,0.33,0.44,displayed efficacy,slight toxicity,increase in A3G,55 fold and 76 fold,> 25,> 25,–,–,–,–,–,–
O=C(NC1(C(F)(F)F)Oc2ccc(Cl)cc2O1)N1CCC2(CC1)OCCO2 (stereo not shown) [Compound 21],–,differential between +/−Vif and A3G infectivities,–,antiviral activity,–,–,–,–,increase in A3G,4 fold and 5 fold,> 25,> 25,0.88,56,63,no toxic effects,0.65,0.57
FC(F)(F)c1nnc2c3ccccc3c(Cl)nn12 [Compound 24],–,differential between +/−Vif and A3G infectivities,–,antiviral activity,–,–,displayed efficacy,slight toxicity,increase in A3G,–,4.9,9.7,–,–,–,–,–,–
